The values that follow come from ChEMBL document CHEMBL1141121, “Selective inhibition of MCF-7(piGST) breast tumors using glutathione transferase-derived 2-methylene-cycloalkenones” (J Med Chem, 2005).

Holding throughout (type): cell-based
Assay [1] deals with T1, Glutathione S-transferase P (Homo sapiens, UniProt P09211). Kind of assay: Inhibitory concentration against GSTP1-1 over-expressed in MCF-7piGST cells.
Target sequence in this assay (P09211 whole entry): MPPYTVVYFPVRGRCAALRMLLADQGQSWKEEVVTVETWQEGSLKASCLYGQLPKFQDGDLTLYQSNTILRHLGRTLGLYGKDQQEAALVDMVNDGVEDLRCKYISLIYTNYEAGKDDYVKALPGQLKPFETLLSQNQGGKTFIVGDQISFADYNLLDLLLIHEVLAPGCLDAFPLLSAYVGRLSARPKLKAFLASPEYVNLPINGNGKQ
Assay [2] deals with T1, Glutathione S-transferase P. Kind of assay: Inhibitory concentration against GSTP1-1 over-expressed in MCF7wt cells.
Target sequence in this assay (P09211 whole entry): as above
The target is the same in assay [3]. Put plainly: Ratio between MCF7wt to MCF-7piGST cells overexpressing in GSTP1-1.
Target sequence in this assay (P09211 2-210 limits assumed): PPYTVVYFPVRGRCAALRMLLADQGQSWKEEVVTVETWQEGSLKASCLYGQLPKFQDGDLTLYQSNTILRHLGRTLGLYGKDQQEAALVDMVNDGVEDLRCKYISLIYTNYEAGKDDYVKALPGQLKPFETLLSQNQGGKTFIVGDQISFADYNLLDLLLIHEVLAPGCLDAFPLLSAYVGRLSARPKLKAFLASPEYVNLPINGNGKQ

As usually defined, the IC50 is the concentration that gives 50% inhibition. Regarding `C/C=C/OC(=O)CC1=CCCCCC1=O`, the half-maximal inhibitory concentration (IC50) in assay [1] is 2.6 µM; in assay [2] it was 10.8 µM. The Ratio in assay [3] came out at 4.2.
Taken in the same sequence, the figures for `C/C=C/C(=O)OCC1=CCCCC1=O` were 13.2 µM, 29.6 µM and 2.2.
